These results are taken from publication PMC11550998, “Novel 5-HT7 receptor antagonists modulate intestinal immune responses and reduce severity of colitis” (American Journal of Physiology - Gastrointestinal and Liver …, 2024).

The target in data set [1] is α1a, α1b, α1d, β1, β2, β3, D2, D5, DAT, GABA-A, H2, H3, H4, mAChR1-5, opioid receptors (δ, κ, µ), benzodiazepine receptors (peripheral and brain) …. In words: Additional selectivity profiling, receptors and transporters (PDSP). As to conditions: PDSP panel, limited binding capacity; read-out: Ki at a variety of receptors and transporters. Here is the method:
(§1) In vitro assessments of MC-170073, MC-20078, and MC-230079 activity at the following targets were determined using the assay systems available through the Psychoactive Drug Screening Program (PDSP). Detailed protocols for each assay are available at https://pdsp.unc.edu/pdspweb/?site=assays. Receptors 5-HT1A, 5-HT1B, 5-HT1D, 5-HT1E, 5-HT2A, 5-HT2B, 5-HT2C, 5-HT3, 5-HT5A, 5-HT6, 5-HT7, α1A, α1B, α1D, α2A, α2B, α2C, benzodiazepine, β1, β2, β3, GABA-A, H1, H2, H3, H4, M1, M2, M3, M4, M5, δ-opioid, κ-opioid, and µ-opioid and transporters dopamine, norepinephrine, and serotonin were evaluated.

For data set [2], the target named is T1, α2A (Homo sapiens, UniProt P08913).
T1 construct: NIMH Psychoactive Drug Screening Program (PDSP), assay service
In words: PDSP selectivity profiling, α2A. It counts as binding. Here is the method:
as §1

Data set [3] concerns the target T2, D1 (Homo sapiens, UniProt P21728).
T2 construct: NIMH Psychoactive Drug Screening Program (PDSP), assay service
In words: PDSP selectivity profiling, D1. It counts as binding.

The target of data set [4] is T3, D4 (Homo sapiens, UniProt P21917).
T3 construct: NIMH Psychoactive Drug Screening Program (PDSP), assay service
In words: PDSP selectivity profiling, D4. It counts as binding.

The nature of data set [5]: Plasma protein binding by equilibrium dialysis. It counts as in vitro ADME. The note with it: mouse. Here is the method:
Plasma protein binding was performed by using equilibrium dialysis (ED) ([17]). ED was performed using a 96-well equilibrium dialyzer with a molecular weight (MW) cutoff of 5 K (Harvard Apparatus, Holliston, MA) and placed in a dual-plate rotator set to maximum speed (Harvard Apparatus, Holliston, MA) located in a 37°C incubator with a 10% CO2 environment. After 22 h of dialysis, buffer and plasma were removed from each side of the dialysis plate. Samples were mixed with equal volumes of the opposite matrix (plasma or buffer) and stored at −20°C for future analyte quantitation.
Plasma concentrations were determined using an LC-MS/MS method. Briefly, 100-µL acetonitrile with an internal standard solution (Diltiazem, 0.1 μg/mL) was added to 50-µL plasma or tissue homogenate. After being vortexed for 1 min, the mixture was centrifuged at 3,000 g for 5 min. LC-MS/MS analysis was carried out using a high-performance liquid chromatography system consisting of an Agilent 1100 system interfaced to an API4000 SCIEX triple-quadrupole tandem mass spectrometer (Applied Biosystems/MDS Sciex, Foster City, CA). […] The detection and quantification of analytes were performed with the m/z transition 347/191 for MC-170073, MC-230078, and MC-230079, and m/z 415/178 for diltiazem.
For orientation: In equilibrium dialysis only unbound substance equilibrates across the membrane.

Data set [6] relates to chronic DSS-induced colitis. In words: Chronic DSS-induced colitis model (three cycles of DSS). It counts as in vivo, C57BL/6 mice. The note with it: 10 mg/kg ip during last cycle. The source says: C57BL/6 (Taconic, Cambridge City, IN) for the DSS model of colitis, as well as C57BL/6 and Rag1^−/− mice (Jackson Laboratory, Bar Harbor, ME) for the T-cell transfer model, were kept in sterilized, filter-topped cages under specific pathogen-free conditions upon arrival and fed autoclaved food. Male mice aged 8–10 wk were used for all experiments. Mice were acclimatized for 7 days before the start of any experiments. All experiments were approved by the animal ethics committee of McMaster University and conducted under Canadian guidelines for animal research.
For induction of acute colitis, DSS (molecular mass 40 kDa; ICN; Biomedicals Incorporate, Solon, OH) was added to autoclaved drinking water at a final concentration of 4 or 5% wt/vol for 5 days. For the induction of chronic colitis, DSS was added to normal drinking water at a final concentration of 4% for 5 days, followed by 7 days of water. This cycle was repeated twice thereafter, with 2% DSS. Control mice received vehicle or normal drinking water.
For acute DSS-induced colitis, C576BL/6 mice were treated with MC-170073 (10 mg/kg of body wt) or vehicle (10% DMSO in normal saline) via intraperitoneal injection once daily for 6 days, starting 1 day before the beginning of DSS. In a separate experiment, C57BL/6 mice were orally administered with MC-230078 (10 mg/kg) or vehicle twice daily for 5 days, starting from the beginning of DSS. […]
Disease activity index (DAI) is a combined score of weight loss, stool consistency, and fecal bleeding and was blindly assessed using a previously published scoring system ([19]). […] DAI was measured across all days of DSS treatment. Macroscopic damage scores were blindly scored using a previously published scoring system for DSS-induced colitis ([19]).
Colonic myeloperoxidase (MPO) levels were measured following a published protocol ([19]). […] The absorbance was measured at 450 nm by a spectrophotometer (model EL808, BioTek). MPO level was expressed in units per milligram of tissue, where 1 U is defined as the quantity of enzyme able to convert 1 μmol hydrogen peroxide to water per minute at room temperature.
Segments of the proximal colon were washed with PBS, fixed in 10% neutral-buffered formalin, washed with ethanol, and embedded in paraffin. Hematoxylin-eosin (H&E)-stained colonic tissue sections were scored using a previously published system ([19]): crypt architecture (normal = 0; severe crypt distortion with loss of entire crypts = 3), degree of inflammatory cell infiltration (normal = 0; dense inflammatory infiltrate = 3), muscle thickening (base of crypt sits on the muscularis mucosae = 0; marked muscle thickening present = 3), goblet cell depletion (absent = 0; present = 1), and crypt abscess (absent = 0; present = 1). […]

T1 sequence (P08913 whole entry): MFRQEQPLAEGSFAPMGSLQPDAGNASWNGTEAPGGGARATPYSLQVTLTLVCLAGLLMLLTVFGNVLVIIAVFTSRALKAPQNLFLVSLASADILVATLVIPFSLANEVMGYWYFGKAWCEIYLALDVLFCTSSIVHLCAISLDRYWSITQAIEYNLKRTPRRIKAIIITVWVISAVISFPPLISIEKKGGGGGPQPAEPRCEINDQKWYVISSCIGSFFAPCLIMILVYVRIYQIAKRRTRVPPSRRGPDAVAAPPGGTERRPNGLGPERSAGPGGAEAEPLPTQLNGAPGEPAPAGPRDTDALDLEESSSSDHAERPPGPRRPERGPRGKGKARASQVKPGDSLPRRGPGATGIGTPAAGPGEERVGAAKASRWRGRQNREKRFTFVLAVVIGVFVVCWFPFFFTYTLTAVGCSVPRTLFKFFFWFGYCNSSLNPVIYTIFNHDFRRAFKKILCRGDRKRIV
T2 sequence (P21728 whole entry): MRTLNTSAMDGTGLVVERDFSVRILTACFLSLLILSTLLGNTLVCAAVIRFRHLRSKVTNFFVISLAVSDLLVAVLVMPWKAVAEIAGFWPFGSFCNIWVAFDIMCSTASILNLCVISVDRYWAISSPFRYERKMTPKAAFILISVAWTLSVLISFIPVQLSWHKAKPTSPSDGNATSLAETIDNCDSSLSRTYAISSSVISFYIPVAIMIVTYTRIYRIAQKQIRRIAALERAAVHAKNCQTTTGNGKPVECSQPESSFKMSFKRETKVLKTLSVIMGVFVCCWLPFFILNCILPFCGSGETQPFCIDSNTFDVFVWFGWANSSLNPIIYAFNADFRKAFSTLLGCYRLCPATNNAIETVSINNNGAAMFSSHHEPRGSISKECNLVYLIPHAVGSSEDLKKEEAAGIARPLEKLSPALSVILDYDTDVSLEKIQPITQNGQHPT
T3 sequence (P21917 whole entry): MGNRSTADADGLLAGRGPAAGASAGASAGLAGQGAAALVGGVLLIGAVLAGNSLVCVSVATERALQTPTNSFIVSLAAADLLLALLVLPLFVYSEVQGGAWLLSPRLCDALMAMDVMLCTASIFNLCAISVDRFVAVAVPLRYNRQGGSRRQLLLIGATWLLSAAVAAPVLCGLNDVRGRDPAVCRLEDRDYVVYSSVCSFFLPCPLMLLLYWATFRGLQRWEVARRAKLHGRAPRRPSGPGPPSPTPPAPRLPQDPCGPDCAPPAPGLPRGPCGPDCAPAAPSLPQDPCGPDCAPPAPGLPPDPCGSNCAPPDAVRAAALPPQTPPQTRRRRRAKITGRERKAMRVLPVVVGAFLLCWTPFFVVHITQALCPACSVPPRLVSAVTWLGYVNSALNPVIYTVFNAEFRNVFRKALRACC

As to `CCC1(CC)CC(CCN2CCN(c3ccc(O)cc3)CC2)OC1=O` (stereo not drawn) [MC-170073], the Ki (usually a measure of affinity in units of concentration, obtained from inhibition or displacement) in data set [1] is above 10 µM; in data set [2], 3.48 µM; in data set [3] it was 0.301 µM; in data set [4], 0.591 µM. Moreover, the unbound share (fraction unbound) (commonly free concentration divided by total concentration) at 22 h in data set [5] was 0.6. Moreover, the “colonic IL-1β level” value in data set [6] is listed as “lower levels”. In addition, the “colonic MPO level” value in data set [6] is reported as “lower levels”. The histological score result in data set [6] is given as “downregulation”. Moreover, the macroscopic score entry in data set [6] is given as “downregulation”.
